Measurements from the supplement of paper PMC8617591.

Tests used:
[1] = tested on: Mycobacterium tuberculosis Erdman (autoluminescent); assay: total FIC50 (Loewe) at 50% inhibition, three-drug combination (log2); higher = more antagonistic
Description: (§1)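 DiaMOND equipotent three-drug combination dose responses (10 doses, 1.5- or 2-fold spacing, centred on IC90) against autoluminescent M. tuberculosis Erdman in 8 in vitro models. Read-out is OD600, or luminescence for the intracellular and dormancy models, normalised to untreated wells. Hill-fit Einf, AUC25 and GRinf are potency metrics; FIC50 and FIC90 are total Loewe fractional inhibitory concentrations as log2 (negative = synergy).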

[2] = tested on: Mycobacterium tuberculosis Erdman (autoluminescent); assay: AUC25, normalised area under dose response up to IC25 (three-drug combination) (fraction (0-1)); higher = more potent at low dose
Description: as §1

[3] = tested on: Mycobacterium tuberculosis Erdman (autoluminescent); assay: total FIC90 (Loewe) at 90% inhibition, three-drug combination (log2); higher = more antagonistic
Description: as §1

[4] = tested on: Mycobacterium tuberculosis Erdman (autoluminescent); assay: Einf, fitted maximum growth inhibition of three-drug combination (fraction); higher = stronger maximal inhibition
Description: as §1

[5] = tested on: Mycobacterium tuberculosis Erdman (autoluminescent); assay: GRinf, maximum normalised growth rate inhibition (three-drug combination) (unitless (-1 to 1)); higher = less effect (negative = killing)
Description: as §1

NNC(=O)c1ccncc1 [isoniazid] + CC(=O)NC[C@H]1CN(c2ccc(N3CCOCC3)c(F)c2)C(=O)O1 [linezolid] + O=[N+]([O-])c1cn2c(n1)OC[C@@H](OCc1ccc(OC(F)(F)F)cc1)C2 [pretomanid]
Conditions | AUC25, [2] | Einf, [4] | GRinf, [5] | total FIC50, [1] | total FIC90, [3]
in vitro model: acidic pH 5.7, time point: constant (~7 days, model-specific) | 0.0901 | 0.793 | -0.0622 | 4.28 | –
in vitro model: acidic pH 5.7, time point: terminal (~4-5 doublings, model-specific) | 0.0757 | 0.953 | -0.252 | 4.74 | 4.06
in vitro model: intracellular J774, time point: constant = terminal | – | 0.984 | -0.382 | – | 1.1

Conditions | AUC25, [2] | Einf, [4] | GRinf, [5] | total FIC50, [1] | total FIC90, [3]
in vitro model: butyrate, time point: constant (~7 days, model-specific) | 0.103 | 0.921 | -0.0322 | 2.79 | 1.15
in vitro model: butyrate, time point: terminal (~4-5 doublings, model-specific) | 0.0738 | 0.963 | -0.0424 | 2.83 | 3.23
in vitro model: cholesterol 0.05 mM, time point: constant (~7 days, model-specific) | 0.129 | 0.69 | -0.147 | 1.32 | –
in vitro model: cholesterol 0.05 mM, time point: terminal (~4-5 doublings, model-specific) | 0.124 | 0.912 | -0.296 | 8.62 | 1.89
in vitro model: cholesterol-high 0.2 mM, time point: constant (~7 days, model-specific) | 0.107 | 0.924 | -0.361 | 0.772 | –
in vitro model: cholesterol-high 0.2 mM, time point: terminal (~4-5 doublings, model-specific) | 0.101 | 0.991 | -0.726 | 0.566 | 1.06
in vitro model: dormancy (butyrate + nitrate, low O2), time point: constant (~7 days, model-specific) | 0.0625 | 0.868 | 0.121 | 4.26 | 4.03
in vitro model: dormancy (butyrate + nitrate, low O2), time point: terminal (~4-5 doublings, model-specific) | 0.0423 | 0.987 | -0.233 | 4.19 | 4.02
in vitro model: standard 7H9 glycerol, time point: constant = terminal | 0.0856 | 0.917 | 0.116 | 4.72 | 6.4
in vitro model: valerate, time point: constant (~7 days, model-specific) | 0.126 | 0.88 | 0.0789 | 2.28 | 8.43
in vitro model: valerate, time point: terminal (~4-5 doublings, model-specific) | 0.0856 | 0.93 | 0.029 | 2.36 | 2.72

NNC(=O)c1ccncc1 [isoniazid] + CO[C@H]1/C=C/O[C@@]2(C)Oc3c(C)c(O)c4c(O)c(c(/C=N/N5CCN(C6CCCC6)CC5)c(O)c4c3C2=O)NC(=O)/C(C)=C\C=C\[C@H](C)[C@H](O)[C@@H](C)[C@@H](O)[C@@H](C)[C@H](OC(C)=O)[C@@H]1C [rifapentine] + CO[C@H]1/C=C/O[C@@]2(C)Oc3c(C)c(O)c4c(O)c(c(/C=N/N5CCN(C)CC5)c(O)c4c3C2=O)NC(=O)/C(C)=C\C=C\[C@H](C)[C@H](O)[C@@H](C)[C@@H](O)[C@@H](C)[C@H](OC(C)=O)[C@@H]1C [rifampicin]
Conditions | AUC25, [2] | Einf, [4] | GRinf, [5] | total FIC50, [1] | total FIC90, [3]
in vitro model: acidic pH 5.7, time point: constant (~7 days, model-specific) | 0.0821 | 0.87 | -0.0825 | 0.753 | –
in vitro model: acidic pH 5.7, time point: terminal (~4-5 doublings, model-specific) | 0.0679 | 0.98 | -0.129 | 0.528 | 0.407
in vitro model: intracellular J774, time point: constant = terminal | – | 0.936 | -0.1 | – | 0.217

Conditions | AUC25, [2] | Einf, [4] | GRinf, [5] | total FIC50, [1] | total FIC90, [3]
in vitro model: butyrate, time point: constant (~7 days, model-specific) | 0.104 | 0.922 | 0.00523 | 0.263 | 0.467
in vitro model: butyrate, time point: terminal (~4-5 doublings, model-specific) | 0.0874 | 0.967 | 0.000636 | 0.203 | 0.338
in vitro model: cholesterol 0.05 mM, time point: constant (~7 days, model-specific) | 0.112 | 0.62 | 0.0102 | 0.806 | –
in vitro model: cholesterol 0.05 mM, time point: terminal (~4-5 doublings, model-specific) | 0.0884 | 0.883 | -0.129 | 0.447 | -0.00675
in vitro model: cholesterol-high 0.2 mM, time point: constant (~7 days, model-specific) | 0.068 | 0.913 | -0.352 | 0.176 | –
in vitro model: cholesterol-high 0.2 mM, time point: terminal (~4-5 doublings, model-specific) | 0.055 | 0.998 | -0.762 | 0.475 | 0.196
in vitro model: dormancy (butyrate + nitrate, low O2), time point: constant (~7 days, model-specific) | 0.0473 | 0.859 | 0.242 | -0.0392 | -0.445
in vitro model: dormancy (butyrate + nitrate, low O2), time point: terminal (~4-5 doublings, model-specific) | 0.0455 | 0.984 | -0.157 | -0.192 | -0.199
in vitro model: standard 7H9 glycerol, time point: constant = terminal | 0.0666 | 0.906 | 0.0924 | 0.523 | –
in vitro model: valerate, time point: constant (~7 days, model-specific) | 0.0385 | 0.881 | -0.0115 | 0.498 | –
in vitro model: valerate, time point: terminal (~4-5 doublings, model-specific) | 0.0262 | 0.941 | 0.00295 | 0.354 | 0.159

NNC(=O)c1ccncc1 [isoniazid] + COc1c(N2C[C@@H]3CCCN[C@@H]3C2)c(F)cc2c(=O)c(C(=O)O)cn(C3CC3)c12 [moxifloxacin] + CO[C@H]1/C=C/O[C@@]2(C)Oc3c(C)c(O)c4c(O)c(c(/C=N/N5CCN(C6CCCC6)CC5)c(O)c4c3C2=O)NC(=O)/C(C)=C\C=C\[C@H](C)[C@H](O)[C@@H](C)[C@@H](O)[C@@H](C)[C@H](OC(C)=O)[C@@H]1C [rifapentine]
Conditions | AUC25, [2] | Einf, [4] | GRinf, [5] | total FIC50, [1] | total FIC90, [3]
in vitro model: acidic pH 5.7, time point: constant (~7 days, model-specific) | 0.0764 | 0.856 | -0.0715 | 0.631 | –
in vitro model: acidic pH 5.7, time point: terminal (~4-5 doublings, model-specific) | 0.0472 | 0.974 | -0.112 | 0.694 | 0.483
in vitro model: intracellular J774, time point: constant = terminal | – | 0.952 | -0.208 | – | 0.563

Conditions | AUC25, [2] | Einf, [4] | GRinf, [5] | total FIC50, [1] | total FIC90, [3]
in vitro model: butyrate, time point: constant (~7 days, model-specific) | 0.0757 | 0.917 | 0.00281 | 0.673 | 0.414
in vitro model: butyrate, time point: terminal (~4-5 doublings, model-specific) | 0.0584 | 0.965 | 0.00571 | 0.595 | 0.447
in vitro model: cholesterol 0.05 mM, time point: constant (~7 days, model-specific) | 0.102 | 0.644 | -0.051 | 0.862 | –
in vitro model: cholesterol 0.05 mM, time point: terminal (~4-5 doublings, model-specific) | 0.0878 | 0.88 | -0.115 | 0.866 | 0.95
in vitro model: cholesterol-high 0.2 mM, time point: constant (~7 days, model-specific) | 0.0823 | 0.922 | -0.472 | 0.636 | –
in vitro model: cholesterol-high 0.2 mM, time point: terminal (~4-5 doublings, model-specific) | 0.0703 | 1 | -0.778 | 0.916 | 0.976
in vitro model: dormancy (butyrate + nitrate, low O2), time point: constant (~7 days, model-specific) | 0.0676 | 0.866 | 0.268 | 0.401 | 0.429
in vitro model: dormancy (butyrate + nitrate, low O2), time point: terminal (~4-5 doublings, model-specific) | 0.0486 | 0.97 | -0.0791 | 0.655 | 0.61
in vitro model: standard 7H9 glycerol, time point: constant = terminal | 0.0438 | 0.911 | 0.0464 | 0.774 | 0.752
in vitro model: valerate, time point: constant (~7 days, model-specific) | 0.0564 | 0.866 | -0.0209 | 0.608 | –
in vitro model: valerate, time point: terminal (~4-5 doublings, model-specific) | 0.0386 | 0.933 | -0.00377 | 0.659 | 0.621
